Laboratory results as given in patent US20090227671A1, “Prevention and treatment of atherosclerosis with lithospermate B” (Industry-Academic Cooperation Foundation, priority 2005, published 2009).

Tests used:
[1] = tested on: vascular smooth muscle cells; test: Cytotoxicity of LAB in VSMC; assay type: cell-based, Sprague-Dawley rats; settings: LAB up to 30 μM
Description: The VSMC was treated in a culture medium not containing serum for 24 hrs prior to treatment with PDGF-BB, and the reaction according to the presence or absence of PDGF-BB was analyzed after pretreating with LAB or other reagents.
To investigate whether LAB decreases the proliferation of VSMC induced by PDGF-BB an experiment was performed as follows. The VSMC was placed in a culture medium not containing serum for 24 hrs to inhibit cell proliferation, and then pretreated with LAB with various concentrations of 1, 5, 10, 20, 30 μM and treated with PDGF-BB for 24 hrs. The extent of VSMC proliferation was compared with that of control as stated above via LDH and MTT assays (FIG. 1).

[2] = tested on: vascular smooth muscle cells; test: VSMC proliferation induced by PDGF-BB (LDH and MTT assays); assay type: cell-based, Sprague-Dawley rats; settings: LAB 1, 5, 10, 20, 30 μM pretreatment, PDGF-BB 24 hrs; LDH and MTT assays
Description: Vascular smooth muscle cells ('VSMC' hereinafter) were separated from thoracic aorta of a Sprague-Dawley weighted about 100-150 g by using collagenase digestion method and then cultured them according to the method disclosed in previous studies [[…], et al. Role of p44/p42 MAP kinase in the age-dependent increase in vascular smooth muscle cell proliferation and neointimal formation. Arterioscler Thromb Vasc Biol. Feb. 1 2003; 23(2):204-210.; Hamaguchi A, Kim S, Izumi Y, et al. Contribution of extracellular signal-regulated kinase to angiotensin II-induced transforming growth factor-beta1 expression in vascular smooth muscle cells. Hypertension. July 1999; 34(1):126-131]. […] The VSMC was treated in a culture medium not containing serum for 24 hrs prior to treatment with PDGF-BB, and the reaction according to the presence or absence of PDGF-BB was analyzed after pretreating with LAB or other reagents. […] The cells were then washed twice with PBS, lysed by using 0.5% Triton-X100, and then the activity of lactate dehydronase (LDH) was measured by using CytoTox-ONETM assay kit (Promega, Madison, Wis., USA) with fluorescence at […]. […]

[3] = tested on: common carotid arteries after balloon injury; test: Neointimal hyperplasia in balloon-injured carotid artery animal model; assay type: in vivo, Sprague-Dawley rats; settings: LAB 10 mg/kg/day from 2 days prior to PTA, compared with placebo
Description: Two French Forgarty embolectomy catheters were inserted into white male Sprague-Dawley (300 g) through external carotid arteries, and blood vessels were intentionally damaged by moving catheters, which were swollen by adding a physiological saline solution, 3 times vertically within the common carotid thereby expanding blood vessels while shedding off the endothelial cells. A total of 30 rats were divided into 3 groups (10 rats/group) and used in this experiment: group 1 was not treated; group 2 was damaged with their blood vessels; and group 3 was treated with LAB and then damaged with their blood vessels. LAB (10 mg/kg/day) was injected intravenously for a period of 30 days (i.e., from 2 days prior to the blood vessel damage to 28 days after the blood vessel damage). The rats were sacrificed on the 28th day after the blood vessel damage by ablating carotid artery and it was fixed with 4% formaldehyde and then dyed with hematoxylineosin. The mid parts of the damaged blood vessel were cut into 2-4 parts and analyzed via computerized morphometry (SCN Image). […]
White Sprague-Dawley rats were damaged by using percutaneous transluminal angioplastyas (‘PTA’) as stated above. […] On the 2oth day after the surgery the rats were sacrificed and the Intima-Media Thickness (‘IMT’) was measured.

[4] = Acute toxicity due to oral administration in SD rats; assay type: in vivo; settings: SD, rat, in vivo, 1 g/kg; oral, single administration
Description: (§1) Acute toxicity test was performed using 6 week old SPF SD rats. The SD rats were divided two per each group and each rat was orally administered once with LAB in the amount of 1 g/kg/1 mL, which was suspended in 0.5% methylcellulose. After the above administration, the rats were subjected to examination with regard to survival, clinical symptoms, change in body weight, and the like and also hematological examination, biochemical blood test. Further, autopsies were performed to observe abnormalities in abdominal organs.

SD rats = test: as above; assay type: in vivo
Description: as §1

## O=C(/C=C/c1ccc(O)c2c1[C@H](C(=O)O[C@H](Cc1ccc(O)c(O)c1)C(=O)[O-])[C@@H](c1ccc(O)c(O)c1)O2)O[C@H](Cc1ccc(O)c(O)c1)C(=O)[O-].[Mg+2] [LAB, lithospermate B]
[1]; highest concentration
  adverse reaction in VSMC: no adverse reaction observed
[1]; data not shown
  cytotoxic activities: no cytotoxic activities observed
[2]
  VSMC proliferation induced by PDGF-BB: decreased in proportion to the concentration
[3]
  increase in Intima-Media Thickness (IMT): much low
[4]
  LD50: > 500 mg/kg
SD rats; oral, single administration
  dose without toxicity to rats: up to 500 mg/kg
SD rats; single oral dose 1 g/kg in 0.5% methylcellulose
  survival: all experimental rats survived
SD rats; single oral dose 1 g/kg, body weight, hematology, blood biochemistry, autopsy
  clinical symptoms, toxicities and other abnormalities: no abnormal clinical symptoms, no toxicities and other abnormalities
